Measurements published in patent US20250368619A1, “SUBSTITUTED TETRAHYDROCYCLOHEPTA[E]INDOLE DERIVATIVES, PROCESSES FOR THEIR PREPARATION AND THERAPEUTIC USES THEREOF” (SANOFI, priority 2022, published 2025).

The molecules below were run against T1, ERα (Homo sapiens, UniProt P03372) (assay: Estrogen receptor degradation activity: breast cancer cell ERα in cell western assay in MCF7 cells). Conditions: 4 hours, relative to fulvestrant 0.1 μM positive control.
T1 construct: host or cells: MCF7
T1 sequence (P03372 1-595): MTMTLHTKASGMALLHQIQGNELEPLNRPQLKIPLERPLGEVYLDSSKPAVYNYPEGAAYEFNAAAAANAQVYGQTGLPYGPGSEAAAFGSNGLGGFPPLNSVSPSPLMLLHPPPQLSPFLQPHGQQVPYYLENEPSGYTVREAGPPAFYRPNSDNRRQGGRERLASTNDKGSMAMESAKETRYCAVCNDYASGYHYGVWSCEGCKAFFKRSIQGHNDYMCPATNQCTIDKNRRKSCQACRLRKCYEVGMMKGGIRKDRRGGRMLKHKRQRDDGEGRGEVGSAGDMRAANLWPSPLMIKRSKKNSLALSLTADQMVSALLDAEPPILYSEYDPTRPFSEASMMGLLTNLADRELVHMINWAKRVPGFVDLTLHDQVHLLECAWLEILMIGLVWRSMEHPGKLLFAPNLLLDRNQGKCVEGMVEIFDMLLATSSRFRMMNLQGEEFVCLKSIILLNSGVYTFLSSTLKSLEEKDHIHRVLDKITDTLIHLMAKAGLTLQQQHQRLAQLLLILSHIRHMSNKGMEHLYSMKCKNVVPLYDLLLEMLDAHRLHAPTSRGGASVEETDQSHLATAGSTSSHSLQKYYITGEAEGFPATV
Assay type: cell-based
Method: Test: Estrogen receptor degradation activity
Said test involves measuring the in vitro degradation activity of the compounds of the table 1.
The measurements of the degradation activities were made using a breast cancer cell ERα in cell western assay as described hereunder.
MCF7 cells (ATCC) were seeded in 384 wells microplate (collagen coated) at a concentration of 10000 cells/30 μL per well in red phenol free MEM alpha medium (invitrogen) containing 5% charcoal dextran striped FBS. The following day, 9 points serial 1:5 dilution of each compound was added to the cells in 2.5 μL at final concentrations ranging from 0.3-0.0000018 μM (in table 2), or 0.1 μM for fulvestrant (using as positive control). At 4 hours post compound addition the cells were fixed by adding 25 μL of formalin (final concentration 5% formalin containing 0.1% triton) for 10 minutes at RT and then washed twice with PBS. Then, 50 μL of LI-COR blocking buffer containing 0.1% Triton was added to plate for 30 minutes at RT. LI-COR blocking buffer was removed and cells were incubated overnight at cold room with 50 μL anti-ER rabbit monoclonal antibody (Thermo scientific MA1-39540) diluted at 1:1000 in LI-COR blocking buffer containing 0.1% tween-20. Wells which were treated with blocking buffer but no antibody were used as background control. Wells were washed twice with PBS (0.1% tween-20) and incubated at 37° C. for 60 minutes in LI-COR (0.1% tween-20) containing goat anti-rabbit antibody Alexa 488 (1:1000) and Syto-64 a DNA dye (2 μM final concentration). Cells were then washed 3 times in PBS and scanned in ACUMEN explorer (TTP-Labtech). Integrated intensities in the green fluorescence and red fluorescence were measured to determine the levels of ERα and DNA respectively.
The degradation activity with respect to estrogen receptors in this test is given by the concentration which degrades 50% of the estrogen receptor (or IC50) in nM.
The % of ERα levels decrease were determined as follows: % inhibition=100*(1−(sample−fulvestrant:DMSO−fulvestrant)).

SMILES | % Degradation At 0.3 μM [%]
OCCCC1=C(c2ccc(CC3CN(CCCF)C3)cc2)c2ccc3[nH]ccc3c2CCC1 [Compound 25, 3-(6-(4-((1-(3-fluoropropyl)azetidin-3-yl)methyl)phenyl)-3,8,9,10-tetrahydrocyclohepta[e]indol-7-yl)propan-1-ol] | 75
Cc1c(Cl)cccc1C1=C(c2ccc(/C=C3/CCN(CCCF)C3)cc2)c2ccc3[nH]ccc3c2CCC1 [Compound 29, (Z)-7-(3-chloro-2-methylphenyl)-6-(4-((1-(3-fluoropropyl)pyrrolidin-3-ylidene)methyl)phenyl)-3,8,9,10-tetrahydrocyclohepta[e]indole] | 91

Further lines, results first:

% Degradation At 0.3 μM [%] | SMILES
91 | Cc1c(Cl)cccc1C1=C(c2ccc(OC3CN(CCCF)C3)cc2)c2ccc3[nH]ccc3c2CCC1 [Compound 26, 7-(3-chloro-2-methylphenyl)-6-(4-((1-(3-fluoropropyl)azetidin-3-yl)oxy)phenyl)-3,8,9,10-tetrahydrocyclohepta[e]indole]
91 | Cc1c(Cl)cccc1C1=C(c2ccc(NC3CN(CCCF)C3)cc2)c2ccc3[nH]ccc3c2CCC1 [Compound 27, N-(4-(7-(3-chloro-2-methylphenyl)-3,8,9,10-tetrahydrocyclohepta[e]indol-6-yl)phenyl)-1-(3-fluoropropyl)azetidin-3-amine]
91 | Cc1c(Cl)cccc1C1=C(c2ccc(N[C@H]3CCN(CCCF)C3)cc2)c2ccc3[nH]ccc3c2CCC1 [Compound 28, (S)-N-(4-(7-(3-chloro-2-methylphenyl)-3,8,9,10-tetrahydrocyclohepta[e]indol-6-yl)phenyl)-1-(3-fluoropropyl)pyrrolidin-3-amine]
